“And” between values parts separate entries of the source, which are not always exact repeats. Equal entries are not always repeated. Where two headings read alike, the source gives them in different places.
Legend:
hKOR [1] = target: T1, hKOR (Homo sapiens, UniProt P41145); assay: cAMP inhibition assay (GloSensor, HEK 293T), hKOR; format: cell-based; conditions: for Bias factor toward G protein, hKOR: cAMP inhibition vs Tango, against U50,488H as control
T1 construct: expressed in transfected cells; host or cells: HEK 293T (ATCC CRL-11268), transient

hMOR [2] = target: T2, hMOR (Homo sapiens, UniProt P35372); assay: cell-based; format: cell-based
T2 construct: expressed in transfected cells; host or cells: HEK 293T (ATCC CRL-11268), transient

hKOR [3] = target: T1, hKOR; assay: Tango β-arrestin recruitment assay, hKOR; format: cell-based
mDOR [4] = target: T3, mDOR (Mus musculus, UniProt P32300); assay: Radioligand competition binding ([125I]IBNtxA), CHO membranes, mDOR; conditions: vs 125IBNtxA (0.1 nM), CHO membranes, mean ± SEM
T3 construct: expressed in transfected cells

mMOR [5] = target: T4, mMOR (Mus musculus, UniProt P42866); assay: Radioligand competition binding ([125I]IBNtxA), CHO membranes, mMOR; conditions: vs 125IBNtxA (0.1 nM), mean ± SEM
T4 construct: expressed in transfected cells

[6] = target: T5, rat kappa opioid receptor (rKOR) (Rattus norvegicus, UniProt P34975); assay: BRET assay, G-protein activation, rKOR; format: cell-based; conditions: for Bias factor toward G-protein, rKOR: BRET assays, against U50,488H as control; for EC50: read-out: Gi EC50 rKOR
T5 construct: expressed in transfected cells; host or cells: HEK-293T, transient (PEI), with BRET sensor cDNAs

hDOR [7] = target: T6, hDOR (Homo sapiens, UniProt P41143); assay: cAMP inhibition assay, hDOR; format: cell-based; design: expressed in transfected cells
hDOR [8] = target: T6, hDOR; assay: Tango β-arrestin recruitment assay, hDOR; format: cell-based; design: expressed in transfected cells; host or cells: HTLA cells expressing TEV fused-beta-Arrestin2
[9] = target: T7, mouse delta opioid receptor (mDOR) (Mus musculus, UniProt P32300); assay: BRET assay, arrestin recruitment, mDOR; format: cell-based
T7 construct: expressed in transfected cells; host or cells: HEK-293T, transient (PEI), with BRET sensor cDNAs

hMOR [10] = target: T2, hMOR; assay: Tango β-arrestin recruitment assay, hMOR; format: cell-based
[11] = target: T8, mouse mu opioid receptor (mMOR) (Mus musculus, UniProt P42866); assay: cell-based; format: cell-based
T8 construct: expressed in transfected cells; host or cells: HEK-293T, transient (PEI), with BRET sensor cDNAs

mKOR [12] = target: T9, mKOR (Mus musculus, UniProt P33534); assay: [35S]GTPγS functional assay, mKOR; format: biochemical
T9 construct: expressed in transfected cells

mMOR [13] = target: T4, mMOR; assay: [35S]GTPγS functional assay, mMOR; format: biochemical
[14] = target: T7, mouse delta opioid receptor (mDOR); assay: BRET assay, G-protein activation, mDOR; format: cell-based
mKOR [15] = target: T9, mKOR; assay: Radioligand competition binding ([125I]IBNtxA), CHO membranes, mKOR; conditions: vs 125IBNtxA (0.1 nM), mean ± SEM
mDOR [16] = target: T3, mDOR; assay: [35S]GTPγS functional assay, mDOR; format: biochemical
[17] = target: T5, rat kappa opioid receptor (rKOR); assay: BRET assay, arrestin recruitment, rKOR; format: cell-based
[18] = target: T8, mouse mu opioid receptor (mMOR); assay: cell-based; format: cell-based; remark: listed apart in the source
Y312W-hKOR [19] = target: T10, Y312W-hKOR (Homo sapiens, UniProt P41145, Y312W); assay: cAMP inhibition assay, Y312W-hKOR mutant; format: cell-based; design: expressed in transfected cells; host or cells: HEK 293T (inferred from the general cAMP method)
Y312W-hKOR [20] = target: T10, Y312W-hKOR; assay: Tango-arrestin recruitment assay, Y312W-hKOR mutant; format: cell-based; design: expressed in transfected cells
[21] = BRET, normalized to Emax of U50,488H
[22] = mDOR, BRET, normalized to DPDPE
[23] = read-out: Arrestin recruitment Emax % ± SEM

With O=C(N[C@@H]1CC[C@@]2(O)[C@H]3Cc4ccc(O)c5c4[C@@]2(CCN3CC2CC2)[C@H]1O5)c1cccc(I)c1 [IBNtxA, reference compound] the “Bias factor toward G protein, hKOR” value (hKOR [1]) was 0.2, the “Gi Emax hKOR” value (hKOR [1]; cAMP inhibition, normalized to Emax of U50,488H) was 106±0.7 and the “Bias factor toward G protein, hMOR” value (hMOR [2]) was 23. For the same compound, the “Gi Emax hMOR” value (hMOR [2]) was 95±2, the “Gi pEC50±SEM hMOR” value (hMOR [2]) was 10.2±0.006 and the EC50 (hMOR [2]; read-out: Gi EC50 hMOR) was 0.07 nM. The “Arrestin pEC50±SEM hKOR” value (hKOR [3]; Tango, WT-hKOR) was 10.9±0.07, the EC50 (hKOR [3]; Tango, WT-hKOR) was 0.013 nM and the “Arrestin Emax hKOR” value (hKOR [3]; Tango, normalized to Emax of U50,488H) was 109±1.8. For the same compound, the Ki (mDOR [4]) was 0.24 ± 0.05 nM, the Ki (mMOR [5]) was 0.11 ± 0.02 nM and the “Gi pEC50±SEM rKOR” value ([6]; BRET) was 10.2±0.1. The “Bias factor toward G-protein, rKOR” value [6] was 0.6, the “Gi Emax rKOR” value [6, 21] was 101±2.3 and the EC50 ([6]; BRET) was 0.064 nM. For the same compound, the EC50 (hDOR [7]; hDOR) was 0.43 nM, the “cAMP inhibition pEC50 ± SEM” value (hDOR [7]; hDOR) was 9.3 ± 0.03 and the “cAMP inhibition Emax % ± SEM” value (hDOR [7]; hDOR, normalized to DPDPE or DADLE) was 106 ± 1%. For the same compound, the “Arrestin recruitment pEC50 ± SEM” value (hDOR [8]; hDOR, Tango) was 7.8 ± 0.06, the EC50 (hDOR [8]; hDOR, Tango) was 14.1 nM and the “Arrestin recruitment Emax % ± SEM” value (hDOR [8]; hDOR, Tango, normalized to DPDPE or DADLE) was 224 ± 5%. For the same compound, the “Arrestin recruitment pEC50 ± SEM” value ([9]; mDOR, BRET) was 7.5 ± 0.2, the EC50 ([9]; mDOR, BRET) was 26.6 nM and the “Arrestin recruitment Emax % ± SEM” value [9, 22] was 88 ± 6.8%. The “Arrestin pEC50±SEM hMOR” value (hMOR [10]; Tango) was 8.2±0.002, the EC50 (hMOR [10]; Tango) was 5.86 nM and the “Arrestin Emax hMOR” value (hMOR [10]; Tango, normalized to Emax of DAMGO) was 29±0.02. The “Bias factor toward G-protein, mMOR” value [11] was 404, the “Gi Emax mMOR” value [11] was 59±2.2 and the “Gi pEC50±SEM mMOR” value [11] was 10.3±0.02. For the same compound, the EC50 ([11]; read-out: Gi EC50 mMOR) was 0.054 nM, the EC50 (mKOR [12]; [35S]GTPγS, nM ± SEM) was 0.22 ± 0.02 nM and the “mKOR Emax” value (mKOR [12]; [35S]GTPγS, relative to U50,488H) was 102 ± 4%. For the same compound, the EC50 (mMOR [13]; [35S]GTPγS, nM ± SEM) was 0.49 ± 0.12 nM, the “mMOR Emax” value (mMOR [13]; [35S]GTPγS, relative to DAMGO) was 101 ± 3% and the EC50 ([14]; mDOR, BRET) was 0.48 nM. For the same compound, the “G-Protein activation pEC50 ± SEM” value ([14]; mDOR, BRET) was 9.3 ± 0.10, the “G-Protein activation Emax % ± SEM” value [14, 22] was 108 ± 3.7% and the Ki (mKOR [15]) was 0.03 ± 0.001 nM. For the same compound, the EC50 (mDOR [16]; [35S]GTPγS, nM ± SEM) was 4.08 ± 0.67 nM, the “mDOR Emax” value (mDOR [16]; [35S]GTPγS, relative to DPDPE) was 95 ± 2% and the “Arrestin pEC50±SEM rKOR” value ([17]; BRET) was 8.9±0.02. For the same compound, the EC50 ([17]; BRET) was 1.23 nM, the “Arrestin Emax rKOR” value [17, 21] was 133±7.3 and the “Arrestin Emax mMOR” value [18] was 75±13.9. For the same compound, the “Arrestin pEC50±SEM mMOR” value [18] was 4.9±0.3 and the EC50 ([18]; read-out: Arrestin EC50 mMOR) was 11.3 µM.

For O=C(N[C@@H]1CCC2C3Cc4ccc(O)c5c4C2(CCN3CC2CC2)C1O5)c1cccc(I)c1 (stereo partly drawn) [MP1202, N-((7R,1265)-3-(Cyclopropylmethyl)-9-hydroxy-2,3,4,4a,5,6,7,7a-octahydro-1H-4,12-methanobenzofuro[3,2-e]isoquinolin-7-yl)-3-iodobenzamide], the Emax (hKOR [1]; HEK-293T, read-out: Gi Emax hKOR) was 110 ± 1%, the “Bias factor toward G protein, hKOR” value (hKOR [1]) was 0.6 and the EC50 (hKOR [1]; cAMP inhibition, read-out: Gi EC50 hKOR) was 1.6 pM. For the same compound, the “Bias factor toward G protein, hMOR” value (hMOR [2]) was 31, the EC50 (hMOR [2]) was 0.077 nM and the Emax (hMOR [2]; HEK-293T, read-out: Gi Emax hMOR) was 92 ± 1.4%. For the same compound, the “Bias factor toward G-protein, Y312W-hKOR” value (Y312W-hKOR [19]; cAMP inhibition vs Tango, against U50,488H as control) was 33 and 34, the EC50 (Y312W-hKOR [19]; cAMP inhibition, read-out: Gi pEC50±SEM Y312W-hKOR (converted)) was 0.0204 nM and the Emax (Y312W-hKOR [19]; read-out: Gi Emax Y312W-hKOR) was 101 ± 1.5%. For the same compound, the Emax (Y312W-hKOR [20]) was 55 ± 2.6%, the EC50 (Y312W-hKOR [20]; Tango) was 3.4 nM and the “arrestin recruitment at Y312W-hKOR” value (Y312W-hKOR [20]; Tango, compared with wild-type KOR) was “reduced arrestin recruitment”. For the same compound, the Emax (hKOR [3]) was 101 ± 1%, the EC50 (hKOR [3]; Tango, WT-hKOR) was 0.0457 nM and the “Bias factor toward G-protein, rKOR” value [6] was 0.39 and 0.4. The EC50 ([6]; BRET) was 0.134 nM, the Emax ([6]; read-out: Gi Emax rKOR) was 104 ± 2% and the EC50 (hDOR [7]; hDOR) was 8.18 nM. The Emax (hDOR [7]; read-out: cAMP inhibition Emax % ± SEM) was 99 ± 2.2%, the EC50 (hDOR [8]; hDOR, Tango) was 18.1 nM and the Emax (hDOR [8]; [23]) was 26 ± 3.1%. The EC50 ([9]; mDOR, BRET) was 525 nM, the Emax [9, 23] was 26 ± 2.3% and the Emax (hMOR [10]) was 53 ± 2%. For the same compound, the EC50 (hMOR [10]; Tango) was 26.8 nM, the “Bias factor toward G-protein, mMOR” value [11] was 58 and the Emax ([11]; read-out: Gi Emax mMOR) was 61 ± 1.5%. For the same compound, the Emax (mKOR [12]) was 94 ± 5%, the Emax (mMOR [13]) was 68 ± 1% and the Emax ([14]; read-out: G-Protein activation Emax % ± SEM) was 103 ± 4.6%. It also gave an Emax (mDOR [16]) of 71 ± 2%, an Emax [17] of 77 ± 5% and an EC50 ([17]; BRET) of 1.44 nM. For the same compound, the Emax ([18]; read-out: Arrestin Emax mMOR) was 53 ± 1.6%.
